The record followed here is patent publication US9139576B2, “Aminomethyl biaryl benzotriazole derivatives” (Merck Sharp & Dohme Corp., priority 2011, dated 2015).

The assay deals with T1, recombinant human mGluR2 (Homo sapiens, UniProt Q14416).
T1 construct: expressed in transfected cells
T1 sequence (Q14416 19-872): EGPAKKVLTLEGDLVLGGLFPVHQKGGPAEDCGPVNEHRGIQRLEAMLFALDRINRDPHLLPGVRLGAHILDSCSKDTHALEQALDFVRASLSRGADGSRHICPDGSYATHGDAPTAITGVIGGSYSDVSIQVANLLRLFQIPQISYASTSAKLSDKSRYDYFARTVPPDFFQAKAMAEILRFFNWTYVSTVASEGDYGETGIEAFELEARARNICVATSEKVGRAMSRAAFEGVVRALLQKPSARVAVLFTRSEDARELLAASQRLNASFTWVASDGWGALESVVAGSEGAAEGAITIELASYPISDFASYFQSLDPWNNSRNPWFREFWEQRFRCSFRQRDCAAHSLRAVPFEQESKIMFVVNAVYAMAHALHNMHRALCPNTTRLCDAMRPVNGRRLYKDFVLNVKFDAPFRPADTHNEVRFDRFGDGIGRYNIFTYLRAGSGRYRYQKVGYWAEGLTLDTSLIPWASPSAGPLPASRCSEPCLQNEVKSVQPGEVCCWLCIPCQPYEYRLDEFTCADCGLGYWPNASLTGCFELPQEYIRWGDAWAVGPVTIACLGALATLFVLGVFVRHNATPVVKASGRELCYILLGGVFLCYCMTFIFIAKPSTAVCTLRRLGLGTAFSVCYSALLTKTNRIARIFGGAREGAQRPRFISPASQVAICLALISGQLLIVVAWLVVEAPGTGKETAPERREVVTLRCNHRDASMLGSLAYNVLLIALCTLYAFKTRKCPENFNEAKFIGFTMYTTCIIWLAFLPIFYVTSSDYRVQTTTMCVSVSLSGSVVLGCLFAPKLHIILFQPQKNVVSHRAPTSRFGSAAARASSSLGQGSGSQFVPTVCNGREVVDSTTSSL
Nature of the assay: FLIPR Ca2+ mobilization assay, potentiation of mGluR2. Format: cell-based. The conditions noted are these: potentiation with EC20 glutamate (900 nM); CHO dhfr- cells expressing human mGluR2 and Gα16. The protocol:
Potencies are determined as follows. The compounds of the present invention may be tested in a fluorescence laser imaging plate reader (FLIPR) based assay. This assay is a common functional assay to monitor Ca^2+ mobilization in whole cells expressing recombinant receptor coupled with a promiscuous G-protein. CHO dhfr-cells stably expressing recombinant human mGluR2 and Gα16 loaded with Fluo-4 AM (Invitrogen, Carlsbad Calif.) are treated with varying concentrations of compounds and the Ca^2+ response is monitored on a FLIPR384 (Molecular Devices, Sunnydale Calif.) for agonist activity. The potentiation response is monitored after a subsequent addition of an EC20 concentration of glutamate (900 nM). The maximum calcium response at each concentration of compound for agonism or potentiation are plotted as dose responses curves fitted with a four parameters logistic equation giving EC50 and Hill coefficient using the iterative non linear curve fitting software program.
A general note: Calcium flux is commonly read through the fluorescence of an indicator in the cells.
Consider `CN1C(=O)CN(Cc2ccc(-c3ccc4c(nnn4CC4CC4)c3C(F)(F)F)c(F)n2)C1=O` [Example 1, 1-({5-[1-(Cyclopropylmethyl)-4-(trifluoromethyl)-1H-benzotriazol-5-yl]-6-fluoropyridin-2-yl}methyl)-3-methylimidazolidine-2,4-dione], for which the EC50 – broadly, the concentration needed to bring the measured effect to its halfway point – was found to be 17.3 nM.

Take `CN1C(=O)CN(Cc2ccc(-c3ccc4c(nnn4CC4CC4)c3C(F)(F)F)cc2)C1=O` [Example 2, 1-{4-[1-(Cyclopropylmethyl)-4-(trifluoromethyl)-1H-benzotriazol-5-yl]benzyl}-3-methylimidazolidine-2,4-dione]: the EC50 was determined as 5.8 nM.

On to `O=C1CN(Cc2ccc(-c3ccc4c(nnn4CC4CC4)c3C(F)(F)F)cc2)C(=O)N1` [Example 4, 1-{4-[1-(Cyclopropylmethyl)-4-(trifluoromethyl)-1H-benzotriazol-5-yl]benzyl}imidazolidine-2,4-dione], for which the EC50 was 9.21 nM.

Turning to `C[C@H](O)C(=O)NCc1ccc(-c2ccc3c(nnn3CC3CC3)c2C(F)(F)F)cc1` [Example 5, (2S)—N-{4-[1-(Cyclopropylmethyl)-4-(trifluoromethyl)-1H-benzotriazol-5-yl]benzyl}-2-hydroxypropanamide], the EC50 amounted to 59.1 nM.

Turning to `Cn1c(=O)[nH]n(Cc2ccc(-c3ccc4c(nnn4CC(C)(C)C)c3Br)cc2)c1=O` [Example 7, 1-{4-[4-Bromo-1-(2,2-dimethylpropyl)-1H-benzotriazol-5-yl]benzyl}-4-methyl-1,2,4-triazolidine-3,5-dione], the EC50 was found to be 532 nM.

For the compound `CC(C)Cn1nnc2c(Br)c(-c3ccc(CN4CC(=O)N(C)C4=O)cc3)ccc21` [Example 8, 1-{4-[4-Bromo-1-(2-methylpropyl)-1H-benzotriazol-5-yl]benzyl}-3-methylimidazolidine-2,4-dione], the EC50 was determined as 3 nM.

Consider `CC(C)Cn1nnc2c(C(F)(F)F)c(-c3ccc(CN4CC(=O)N(C)C4=O)cc3)ccc21` [Example 9, 3-Methyl-1-{4-[1-(2-methylpropyl)-4-(trifluoromethyl)-1H-benzotriazol-5-yl]benzyl}imidazolidine-2,4-dione], for which the EC50 turned out to be 6.1 nM.

With `CN1C(=O)CN(Cc2ccc(-c3ccc4c(nnn4CC4CC4)c3Br)cc2)C1=O` [Example 10, 1-{4-[4-Bromo-1-(cyclopropylmethyl)-1H-benzotriazol-5-yl]benzyl}-3-methylimidazolidine-2,4-dione], the EC50 stood at 5.3 nM.

As for `CSc1c(-c2ccc(CN3CC(=O)N(C)C3=O)c(F)c2)ccc2c1nnn2CC1CC1` [Example 15, 1-{4-[1-(Cyclopropylmethyl)-4-(methylsulfanyl)-1H-benzotriazol-5-yl]-2-fluorobenzyl}-3-methylimidazolidine-2,4-dione], the EC50 was determined as 6.6 nM.

As for `CN1C(=O)CN(Cc2ccc(-c3ccc4c(nnn4CC4CC4)c3S(C)(=O)=O)cc2F)C1=O` [Example 16, 1-{4-[1-(Cyclopropylmethyl)-4-(methylsulfonyl)-1H-benzotriazol-5-yl]-2-fluorobenzyl}-3-methylimidazolidine-2,4-dione], the EC50 is 245 nM.

In the case of `CN1C(=O)CN(Cc2ccc(-c3ccc4c(nnn4CC4CC4)c3[S+](C)[O-])cc2F)C1=O` (stereo not shown) [Example 17, 1-{4-[1-(Cyclopropylmethyl)-4-(methylsulfinyl)-1H-benzotriazol-5-yl]-2-fluorobenzyl}-3-methylimidazolidine-2,4-dione], the EC50 was determined as 1250 nM.

On to `CN1C(=O)CN(Cc2ccc(-c3ccc4c(nnn4CC4CC4)c3C#N)cc2)C1=O` [Example 18, 1-(Cyclopropylmethyl)-5-{4-[(3-methyl-2,4-dioxoimidazolidin-1-yl)methyl]phenyl}-1H-benzotriazole-4-carbonitrile], for which the EC50 stood at 39 nM.

For the compound `CCc1c(-c2ccc(CN3CC(=O)N(C)C3=O)cc2)ccc2c1nnn2CC1CC1` [Example 19, 1-{4-[1-(Cyclopropylmethyl)-4-ethyl-1H-benzotriazol-5-yl]benzyl}-3-methylimidazolidine-2,4-dione], the EC50 stood at 7.8 nM.

With `CN1C(=O)CN(Cc2ccc(-c3ccc4c(nnn4CC4CC4)c3C=O)cc2)C1=O` [Example 20, 1-(Cyclopropylmethyl)-5-{4-[(3-methyl-2,4-dioxoimidazolidin-1-yl)methyl]phenyl}-1H-benzotriazole-4-carbaldehyde], the EC50 was determined as 56 nM.

Turning to `CN1C(=O)CN(Cc2ccc(-c3ccc4c(nnn4CC4CC4)c3CO)cc2)C1=O` [Example 21, 1-{4-[1-(Cyclopropylmethyl)-4-(hydroxymethyl)-1H-benzotriazol-5-yl]benzyl}-3-methylimidazolidine-2,4-dione], the EC50 came to 841 nM.

`CN1C(=O)CN(Cc2ccc(-c3ccc4c(nnn4CC4CC4)c3CF)cc2)C1=O` [Example 22, 1-{4-[1-(Cyclopropylmethyl)-4-(fluoromethyl)-1H-benzotriazol-5-yl]benzyl}-3-methylimidazolidine-2,4-dione]: the EC50 was 14 nM.

Take `CN1C(=O)CN(Cc2ccc(-c3ccc4c(c3)nnn4CC3CC3)cc2)C1=O` [Example 28, 1-{4-[1-(Cyclopropylmethyl)-1H-benzotriazol-5-yl]benzyl}-3-methylimidazolidine-2,4-dione]: the EC50 came out at 196 nM.

With `CN1C(=O)CN(Cc2ccc(-c3ccc4c(nnn4CC4CC4)c3Cl)cc2)C1=O` [Example 29, 1-{4-[4-Chloro-1-(cyclopropylmethyl)-1H-benzotriazol-5-yl]benzyl}-3-methylimidazolidine-2,4-dione], the EC50 stood at 11.4 nM.

For `[N-]=[N+]=NCc1ccc(-c2ccc3c(nnn3CC3CC3)c2Cl)cc1` [Example 37, 5-[4-(Azidomethyl)phenyl]-4-chloro-1-(cyclopropylmethyl)-1H-benzotriazole], the EC50 was determined as 53 nM.

On to `NCc1ccc(-c2ccc3c(nnn3CC3CC3)c2Cl)cc1` [Example 38, 1-{4-[4-Chloro-1-(cyclopropylmethyl)-1H-benzotriazol-5-yl]phenyl}methanamine], for which the EC50 came to 2320 nM.

Consider `C[C@@H](O)C(=O)NCc1ccc(-c2ccc3c(nnn3CC3CC3)c2Cl)cc1` [Example 39, (2R)—N-{4-[4-chloro-1-(cyclopropylmethyl)-1H-benzotriazol-5-yl]benzyl}-2-hydroxypropanamide], for which the EC50 was 49 nM.

Consider `O=C1CN(Cc2ccc(-c3ccc4c(nnn4CC4CC4)c3Cl)cc2)C(=O)N1` [Example 51, 1-{4-[4-Chloro-1-(cyclopropylmethyl)-1H-benzotriazol-5-yl]benzyl}imidazolidine-2,4-dione], for which the EC50 stood at 11.4 nM.

In the case of `CC(C)(C)OC(=O)N1CCN(Cc2ccc(-c3ccc4c(nnn4CC4CC4)c3Cl)cc2)CC1` [Example 52, tert-Butyl 4-{4-[4-chloro-1-(cyclopropylmethyl)-1H-benzotriazol-5-yl]benzyl}piperazine-1-carboxylate], the EC50 turned out to be 80 nM.

In the case of `Clc1c(-c2ccc(CN3CCNCC3)cc2)ccc2c1nnn2CC1CC1` [Example 71, 4-Chloro-1-(cyclopropylmethyl)-5-[4-(piperazin-1-ylmethyl)phenyl]-1H-benzotriazole], the EC50 was 234 nM.

Take `N#CCC(=O)N1CCN(Cc2ccc(-c3ccc4c(nnn4CC4CC4)c3Cl)cc2)CC1` [Example 72, 3-(4-{4-[4-Chloro-1-(cyclopropylmethyl)-1H-benzotriazol-5-yl]benzyl}piperazin-1-yl)-3-oxopropanenitrile]: the EC50 was 30.4 nM.

On to `CCOC(=O)CNC(=O)NCc1ccc(-c2ccc3c(nnn3CC3CC3)c2Cl)cc1` [Example 83, Ethyl N-({4-[4-chloro-1-(cyclopropylmethyl)-1H-benzotriazol-5-yl]benzyl}carbamoyl)glycinate], for which the EC50 was found to be 124 nM.

As to `O=C1CNC(=O)N1Cc1ccc(-c2ccc3c(nnn3CC3CC3)c2Cl)cc1` [Example 84, 3-{4-[4-Chloro-1-(cyclopropylmethyl)-1H-benzotriazol-5-yl]benzyl}imidazolidine-2,4-dione], the EC50 amounted to 34.9 nM.

`CN1CC(=O)N(Cc2ccc(-c3ccc4c(nnn4CC4CC4)c3Cl)cc2)C1=O` [Example 85, 3-{4-[4-Chloro-1-(cyclopropylmethyl)-1H-benzotriazol-5-yl]benzyl}-1-methylimidazolidine-2,4-dione]: the EC50 is 8.9 nM.
